The values below come from patent US4749571A, “Physiologically-active novel substance "Aldostatin" and production method thereof” (Toyo Jozo Co., Ltd., priority 1986, dated 1988).

One series concerns the target T1, aldose reductase (Bos taurus, UniProt P16116).
T1 construct: partially purified aldose reductase derived from bovine lenses; from tissue; host or cells: bovine lenses
Nature of the series: Aldose reductase inhibitory activity. The format is biochemical, bovine (lenses). As to conditions: partially purified bovine lens enzyme. As for the experimental part:
The preparation of an aldose reductase and the quantitative analysis of its enzymatic activity were effected in accordance with the method described by Hayman et al. in "Journal of Biological Chemistry" 240, 877 (1965). It was a partially purified aldose reductase derived from bovine lenses that was employed as an enzyme. Placed in a quartz cell in a spectrophotometer photometer was 2.4 ml of a 5×10^- 5M NADPH solution dissolved in 2/15M phosphate buffer (pH 6.0), 0.4 ml of 15 milli-units/ml solution of the enzyme and 0.1 ml of an aqueous aldostatin of one of various concentration. The contents were pre-incubated at 37° C. for 4 minutes. […] The reduction of the absorbance at 340 nm was traced at 37° C. for 4 minutes. At that time, the value (B) of tan θ was determined. Similarly, the reduction of the absorbance at 340 nm without addition of the inhibitor "aldostatin" was tracked. At that time, the value (A) of tan θ was determined. Percent inhibition (%) was calculated as follows. [formula]
The amount of inhibitor for 50% inhibition was expressed as IC50.

For the next series, the system named is mice. Nature of the series: Acute toxicity. The format is in vivo. As to conditions: i.v., dose of 200 mg/kg.
The next series can be described thus: Solubility. The format is physicochemical.

Consider `O=CN[C@@H](Cc1ccc(O)c(-c2cc(C[C@H](NC=O)C(=O)O)ccc2O)c1)C(=O)O` [aldostatin], for which the IC50 against aldose reductase (substrate glucose (5.0 × 10^-2 M)) was 2640 nM; against aldose reductase (substrate glyceraldehyde (5.0 × 10^-4 M), NADPH, pH 6.0, 37° C.), 1200 nM. In addition, the “toxic effect (acute toxicity)” value in the series with mice was “no toxic effect”. The solubility entry in the series “Solubility” (acetone) is reported as “slightly soluble”; in the series “Solubility” (benzene) it was “insoluble”; in “Solubility” (chloroform), “slightly soluble”; in the series “Solubility” (dimethylsulfoxide), “soluble”; in “Solubility” (ethyl acetate) it was “slightly soluble”; in “Solubility” (hexane), “insoluble”. Besides, the solubility result in the series “Solubility” (methanol) is recorded as “soluble”; in the series “Solubility” (petroleum ether) it was “insoluble”; in the series “Solubility” (water), “soluble”.

By IC50 is commonly meant the concentration that gives 50% inhibition. Read a high IC50 as lower potency.
